Data from ChEMBL document CHEMBL1201862, “PubChem BioAssay data set” (2004).
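Results reflect a 48-hour exposure of cells in 96-well plates to compound at five concentrations. GI50: concentration for 50% inhibition of growth.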 Active and inactive are the calls of the source. No stated cut-off is given here; in the data, active = GI50 up to about 1.1 µM and inactive = higher.

How the values were obtained:
Test in all cases: NCI tumour cell line growth inhibition, 48 h
LOX IMVI = system: LOX IMVI
SK-MEL-2 = system: SK-MEL-2
OVCAR-5 = system: OVCAR-5
MDA-MB-231 = system: MDA-MB-231
HCC 2998 = system: HCC 2998
K562 = system: K562
786-0 = system: 786-0
SR = system: SR
SK-MEL-5 = system: SK-MEL-5
SF-539 = system: SF-539
HCT-116 = system: HCT-116
ACHN = system: ACHN
SF-268 = system: SF-268
SN12C = system: SN12C
HOP-92 = system: HOP-92
MOLT-4 = system: MOLT-4
T47D = system: T47D
MCF7 = system: MCF7
PC-3 = system: PC-3
SK-OV-3 = system: SK-OV-3
RPMI-8226 = system: RPMI-8226
HCT-15 = system: HCT-15
UACC-257 = system: UACC-257
DU-145 = system: DU-145
SW-620 = system: SW-620
OVCAR-8 = system: OVCAR-8
A498 = system: A498
HOP-62 = system: HOP-62
BT-549 = system: BT-549
EKVX = system: EKVX
SNB-75 = system: SNB-75
IGROV-1 = system: IGROV-1
UO-31 = system: UO-31
U-251 = system: U-251
UACC-62 = system: UACC-62
KM12 = system: KM12
OVCAR-4 = system: OVCAR-4
NCI/ADR-RES = system: NCI/ADR-RES
A549 = system: A549
SNB-19 = system: SNB-19
COLO 205 = system: COLO 205
NCI-H460 = system: NCI-H460
M14 = system: M14
OVCAR-3 = system: OVCAR-3
TK-10 = system: TK-10
CAKI-1 = system: CAKI-1
HT-29 = system: HT-29
HL-60 = system: HL-60
MDA-MB-435 = system: MDA-MB-435
SK-MEL-28 = system: SK-MEL-28
Hs-578T = system: Hs-578T
SF-295 = system: SF-295
MDA-N = system: MDA-N
NCI-H226 = system: NCI-H226
NCI-H522 = system: NCI-H522
CCRF-CEM = system: CCRF-CEM
RXF 393 = system: RXF 393
NCI-H23 = system: NCI-H23
Malme-3M = system: Malme-3M

Oc1c(Br)cc(/C=C/c2cccc(/C=C/c3cc(Br)c(O)c(Br)c3)n2)cc1Br
GI50 (LOX IMVI): 13.7 µM (inactive)
GI50 (SK-MEL-2): 4.89 µM (inactive)
GI50 (OVCAR-5): 17.6 µM (inactive)
GI50 (MDA-MB-231): 14.8 µM (inactive)
GI50 (HCC 2998): 6.5 µM (inactive)
GI50 (K562): 3.3 µM (inactive)
GI50 (786-0): 14.8 µM (inactive)
GI50 (SR): 5.15 µM (inactive)
GI50 (SK-MEL-5): 7.06 µM (inactive)
GI50 (SF-539): 13.7 µM (inactive)
GI50 (HCT-116): 8.81 µM (inactive)
GI50 (ACHN): 6.38 µM (inactive)
GI50 (SF-268): 15 µM (inactive)
GI50 (SN12C): 9.68 µM (inactive)
GI50 (HOP-92): 12.1 µM (inactive)
GI50 (MOLT-4): 3.43 µM (inactive)
GI50 (T47D): 5.89 µM (inactive)
GI50 (MCF7): 15.5 µM (inactive)
GI50 (PC-3): 7.52 µM (inactive)
GI50 (SK-OV-3): 20.6 µM (inactive)
GI50 (RPMI-8226): 11.5 µM (inactive)
GI50 (HCT-15): 6.22 µM
GI50 (UACC-257): 15.7 µM (inactive)
GI50 (DU-145): < 0.01 µM (active)
GI50 (SW-620): 17.7 µM (inactive)
GI50 (OVCAR-8): 13 µM (inactive)
GI50 (A498): 8.2 µM (inactive)
GI50 (HOP-62): 31.6 µM (inactive)
GI50 (BT-549): 26.1 µM (inactive)
GI50 (EKVX): 14.8 µM (inactive)
GI50 (SNB-75): 4.34 µM (inactive)
GI50 (IGROV-1): 13.4 µM (inactive)
GI50 (UO-31): 15.1 µM (inactive)
GI50 (U-251): 9.06 µM (inactive)
GI50 (UACC-62): 15.7 µM (inactive)
GI50 (KM12): 5.66 µM (inactive)
GI50 (OVCAR-4): 13.3 µM (inactive)
GI50 (NCI/ADR-RES): 21.6 µM (inactive)
GI50 (A549): 3.72 µM (inactive)
GI50 (SNB-19): 9.98 µM (inactive)
GI50 (COLO 205): 14.6 µM (inactive)
GI50 (NCI-H460): 2.96 µM (inactive)
GI50 (M14): 13.8 µM (inactive)
GI50 (OVCAR-3): 14.1 µM (inactive)
GI50 (TK-10): 14.2 µM (inactive)
GI50 (CAKI-1): 11.5 µM (inactive)
GI50 (HT-29): 12.6 µM (inactive)
GI50 (HL-60): 2.03 µM (inactive)
GI50 (MDA-MB-435): 13.5 µM (inactive)
GI50 (SK-MEL-28): 12.1 µM (inactive)
GI50 (Hs-578T): 17.5 µM (inactive)
GI50 (SF-295): 7.87 µM (inactive)
GI50 (MDA-N): 18.8 µM (inactive)

CCC(=O)n1c(=O)n(-c2ccc([N+](=O)[O-])cc2)c(=O)n1C(=O)CC
GI50 (LOX IMVI): > 100 µM (inactive)
GI50 (SK-MEL-2): > 100 µM (inactive)
GI50 (OVCAR-5): > 100 µM (inactive)
GI50 (MDA-MB-231): > 100 µM (inactive)
GI50 (HCC 2998): > 100 µM (inactive)
GI50 (K562): > 100 µM (inactive)
GI50 (786-0): > 100 µM (inactive)
GI50 (SR): > 100 µM (inactive)
GI50 (NCI-H226): > 100 µM (inactive)
GI50 (SK-MEL-5): > 100 µM (inactive)
GI50 (HCT-116): > 100 µM (inactive)
GI50 (ACHN): > 100 µM (inactive)
GI50 (SF-268): > 100 µM (inactive)
GI50 (SN12C): > 100 µM (inactive)
GI50 (MOLT-4): > 100 µM (inactive)
GI50 (T47D): > 100 µM (inactive)
GI50 (MCF7): > 100 µM (inactive)
GI50 (PC-3): > 100 µM (inactive)
GI50 (SK-OV-3): > 100 µM (inactive)
GI50 (RPMI-8226): > 100 µM (inactive)
GI50 (HCT-15): > 100 µM
GI50 (UACC-257): > 100 µM (inactive)
GI50 (DU-145): > 100 µM (inactive)
GI50 (NCI-H522): > 100 µM (inactive)
GI50 (SW-620): > 100 µM (inactive)
GI50 (OVCAR-8): > 100 µM (inactive)
GI50 (HOP-62): > 100 µM (inactive)
GI50 (BT-549): > 100 µM (inactive)
GI50 (EKVX): > 100 µM (inactive)
GI50 (SNB-75): > 100 µM (inactive)
GI50 (IGROV-1): > 100 µM (inactive)
GI50 (UO-31): > 100 µM (inactive)
GI50 (CCRF-CEM): > 100 µM (inactive)
GI50 (U-251): > 100 µM (inactive)
GI50 (UACC-62): > 100 µM (inactive)
GI50 (KM12): > 100 µM (inactive)
GI50 (OVCAR-4): > 100 µM (inactive)
GI50 (NCI/ADR-RES): > 100 µM (inactive)
GI50 (A549): > 100 µM (inactive)
GI50 (SNB-19): > 100 µM (inactive)
GI50 (COLO 205): > 100 µM (inactive)
GI50 (NCI-H460): > 100 µM (inactive)
GI50 (M14): > 100 µM (inactive)
GI50 (RXF 393): > 100 µM (inactive)
GI50 (OVCAR-3): > 100 µM (inactive)
GI50 (NCI-H23): > 100 µM (inactive)
GI50 (TK-10): > 100 µM (inactive)
GI50 (CAKI-1): > 100 µM (inactive)
GI50 (HT-29): > 100 µM (inactive)
GI50 (HL-60): > 100 µM (inactive)
GI50 (MDA-MB-435): > 100 µM (inactive)
GI50 (SK-MEL-28): > 100 µM (inactive)
GI50 (Hs-578T): > 100 µM (inactive)
GI50 (SF-295): > 100 µM (inactive)
GI50 (MDA-N): > 100 µM (inactive)

Cc1ccc([N+](=O)[O-])cc1S(=O)(=O)Nc1ccc(C2=NN(C(=O)c3ccccc3)C(c3ccccc3)C2)cc1 (centres undefined)
GI50 (LOX IMVI): 30.5 µM (inactive)
GI50 (SK-MEL-2): 14.4 µM (inactive)
GI50 (OVCAR-5): 41.3 µM (inactive)
GI50 (MDA-MB-231): 15.5 µM (inactive)
GI50 (K562): 18 µM (inactive)
GI50 (786-0): 17.4 µM (inactive)
GI50 (SR): 26.4 µM (inactive)
GI50 (NCI-H226): 15.5 µM (inactive)
GI50 (SK-MEL-5): 12.9 µM (inactive)
GI50 (SF-539): 16.6 µM (inactive)
GI50 (HCT-116): 18.1 µM (inactive)
GI50 (ACHN): 19 µM (inactive)
GI50 (SF-268): 18.5 µM (inactive)
GI50 (SN12C): 21.8 µM (inactive)
GI50 (HOP-92): 14.5 µM (inactive)
GI50 (MOLT-4): 15.5 µM (inactive)
GI50 (T47D): 10.6 µM (inactive)
GI50 (MCF7): 17.1 µM (inactive)
GI50 (PC-3): 19.8 µM (inactive)
GI50 (SK-OV-3): 16 µM (inactive)
GI50 (RPMI-8226): 25.5 µM (inactive)
GI50 (HCT-15): 19.5 µM
GI50 (UACC-257): 20.6 µM (inactive)
GI50 (DU-145): 34 µM (inactive)
GI50 (NCI-H522): 11.5 µM (inactive)
GI50 (SW-620): 40.7 µM (inactive)
GI50 (OVCAR-8): 18.9 µM (inactive)
GI50 (A498): 10.9 µM (inactive)
GI50 (HOP-62): 15.9 µM (inactive)
GI50 (BT-549): 22.6 µM (inactive)
GI50 (Malme-3M): 18.2 µM (inactive)
GI50 (EKVX): 16.3 µM (inactive)
GI50 (SNB-75): 16.9 µM (inactive)
GI50 (IGROV-1): 17 µM (inactive)
GI50 (UO-31): 22.4 µM (inactive)
GI50 (CCRF-CEM): 24.9 µM (inactive)
GI50 (U-251): 16.6 µM (inactive)
GI50 (KM12): 26.2 µM (inactive)
GI50 (OVCAR-4): 18.2 µM (inactive)
GI50 (NCI/ADR-RES): 30.4 µM (inactive)
GI50 (A549): 18.7 µM (inactive)
GI50 (SNB-19): 29.1 µM (inactive)
GI50 (COLO 205): 16.9 µM (inactive)
GI50 (M14): 24.4 µM (inactive)
GI50 (RXF 393): 12.1 µM (inactive)
GI50 (OVCAR-3): 11.9 µM (inactive)
GI50 (NCI-H23): 21.4 µM (inactive)
GI50 (TK-10): 18 µM (inactive)
GI50 (CAKI-1): 20 µM (inactive)
GI50 (HT-29): 24.9 µM (inactive)
GI50 (HL-60): 21.5 µM (inactive)
GI50 (MDA-MB-435): 21.2 µM (inactive)
GI50 (SK-MEL-28): 41.6 µM (inactive)
GI50 (Hs-578T): 22.1 µM (inactive)
GI50 (SF-295): 16.9 µM (inactive)
GI50 (MDA-N): 21.2 µM (inactive)
